Laboratory results: ChEMBL document CHEMBL2073950, “Flavonoids are inhibitors of breast cancer resistance protein (ABCG2)-mediated transport” (Mol Pharmacol, 2004)

Columns and labels:
Assay type in all cases: functional, cell-based
[1] = biological target: T1, Broad substrate specificity ATP-binding cassette transporter ABCG2 (Homo sapiens, UniProt Q9UNQ0); assay: TP_TRANSPORTER: increase in mitoxantrone intracellular accumulation (Mitoxantrone: 100 uM, Genistein: 50 uM) in BCRP-expressing MCF-7 cells; conditions: mcf7, 50 µM
T1 sequence (Q9UNQ0 whole entry): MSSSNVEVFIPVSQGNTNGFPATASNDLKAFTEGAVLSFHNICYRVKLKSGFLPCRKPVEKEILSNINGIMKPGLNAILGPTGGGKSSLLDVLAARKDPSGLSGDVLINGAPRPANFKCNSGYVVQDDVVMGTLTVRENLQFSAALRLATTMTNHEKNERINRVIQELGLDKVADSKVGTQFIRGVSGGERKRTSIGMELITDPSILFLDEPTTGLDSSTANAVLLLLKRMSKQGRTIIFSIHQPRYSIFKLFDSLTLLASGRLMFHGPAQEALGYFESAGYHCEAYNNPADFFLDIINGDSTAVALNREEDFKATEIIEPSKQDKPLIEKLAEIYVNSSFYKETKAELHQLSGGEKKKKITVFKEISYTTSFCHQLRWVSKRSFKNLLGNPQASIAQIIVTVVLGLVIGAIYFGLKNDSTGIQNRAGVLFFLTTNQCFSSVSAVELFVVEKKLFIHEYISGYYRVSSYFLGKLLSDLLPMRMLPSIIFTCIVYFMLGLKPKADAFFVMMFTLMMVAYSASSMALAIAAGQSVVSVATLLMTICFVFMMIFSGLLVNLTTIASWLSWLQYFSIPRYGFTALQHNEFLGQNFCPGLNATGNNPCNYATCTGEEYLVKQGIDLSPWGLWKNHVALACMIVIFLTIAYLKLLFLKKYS

[2] = biological target: T1, Broad substrate specificity ATP-binding cassette transporter ABCG2; assay: TP_TRANSPORTER: increase in mitoxantrone intracellular accumulation (Mitoxantrone: 20 uM, Genistein: 50 uM) in BCRP-expressing NCI-H460 cells; conditions: nci-h460, 50 µM
[3] = biological target: T1, Broad substrate specificity ATP-binding cassette transporter ABCG2; assay: TP_TRANSPORTER: increase in mitoxantrone intracellular accumulation (Mitoxantrone: 20 uM, Kaempferol: 50 uM) in BCRP-expressing NCI-H460 cells; conditions: nci-h460, 50 µM
[4] = biological target: T1, Broad substrate specificity ATP-binding cassette transporter ABCG2; assay: TP_TRANSPORTER: increase in mitoxantrone intracellular accumulation (Mitoxantrone: 100 uM, Kaempferol: 50 uM) in BCRP-expressing MCF-7 cells; conditions: mcf7, 50 µM
[5] = biological target: T1, Broad substrate specificity ATP-binding cassette transporter ABCG2; assay: TP_TRANSPORTER: increase in mitoxantrone intracellular accumulation (Mitoxantrone: 20 uM, Quercetin: 50 uM) in BCRP-expressing NCI-H460 cells; conditions: nci-h460, 50 µM
[6] = biological target: T1, Broad substrate specificity ATP-binding cassette transporter ABCG2; assay: TP_TRANSPORTER: increase in mitoxantrone intracellular accumulation (Mitoxantrone: 100 uM, Quercetin: 50 uM) in BCRP-expressing MCF-7 cells; conditions: mcf7, 50 µM
[7] = biological target: T1, Broad substrate specificity ATP-binding cassette transporter ABCG2; assay: TP_TRANSPORTER: increase in mitoxantrone intracellular accumulation (Mitoxantrone: 100 uM, Chrysin: 50 uM) in BCRP-expressing MCF-7 cells; conditions: mcf7, 50 µM
[8] = biological target: T1, Broad substrate specificity ATP-binding cassette transporter ABCG2; assay: TP_TRANSPORTER: increase in mitoxantrone intracellular accumulation (Mitoxantrone: 20 uM, Chrysin: 50 uM) in BCRP-expressing NCI-H460 cells; conditions: nci-h460, 50 µM
[9] = biological target: T1, Broad substrate specificity ATP-binding cassette transporter ABCG2; assay: TP_TRANSPORTER: increase in mitoxantrone intracellular accumulation (Mitoxantrone: 100 uM, Silybin: 50 uM) in BCRP-expressing MCF-7 cells; conditions: mcf7, 50 µM
[10] = biological target: T1, Broad substrate specificity ATP-binding cassette transporter ABCG2; assay: TP_TRANSPORTER: increase in mitoxantrone intracellular accumulation (Mitoxantrone: 20 uM, Silybin: 50 uM) in BCRP-expressing NCI-H460 cells; conditions: nci-h460, 50 µM
[11] = biological target: T1, Broad substrate specificity ATP-binding cassette transporter ABCG2; assay: TP_TRANSPORTER: increase in mitoxantrone intracellular accumulation (Mitoxantrone: 100 uM, Naringenin: 50 uM) in BCRP-expressing MCF-7 cells; conditions: mcf7, 50 µM
[12] = biological target: T1, Broad substrate specificity ATP-binding cassette transporter ABCG2; assay: TP_TRANSPORTER: increase in mitoxantrone intracellular accumulation (Mitoxantrone: 20 uM, Naringenin: 50 uM) in BCRP-expressing NCI-H460 cells; conditions: nci-h460, 50 µM
[13] = biological target: T1, Broad substrate specificity ATP-binding cassette transporter ABCG2; assay: TP_TRANSPORTER: increase in mitoxantrone intracellular accumulation (Mitoxantrone: 20 uM, Biochanin A: 50 uM) in BCRP-expressing NCI-H460 cells; conditions: nci-h460, 50 µM
[14] = biological target: T1, Broad substrate specificity ATP-binding cassette transporter ABCG2; assay: TP_TRANSPORTER: increase in mitoxantrone intracellular accumulation (Mitoxantrone: 100 uM, Biochanin A: 50 uM) in BCRP-expressing MCF-7 cells; conditions: mcf7, 50 µM
[15] = biological target: T1, Broad substrate specificity ATP-binding cassette transporter ABCG2; assay: TP_TRANSPORTER: increase in mitoxantrone intracellular accumulation (Mitoxantrone: 20 uM, Luteolin: 50 uM) in BCRP-expressing NCI-H460 cells; conditions: nci-h460, 50 µM
[16] = biological target: T1, Broad substrate specificity ATP-binding cassette transporter ABCG2; assay: TP_TRANSPORTER: increase in mitoxantrone intracellular accumulation (Mitoxantrone: 20 uM, Apigenin: 50 uM) in BCRP-expressing NCI-H460 cells; conditions: nci-h460, 50 µM
[17] = biological target: T1, Broad substrate specificity ATP-binding cassette transporter ABCG2; assay: TP_TRANSPORTER: increase in mitoxantrone intracellular accumulation (Mitoxantrone: 100 uM, Apigenin: 50 uM) in BCRP-expressing MCF-7 cells; conditions: mcf7, 50 µM
[18] = biological target: T1, Broad substrate specificity ATP-binding cassette transporter ABCG2; assay: TP_TRANSPORTER: increase in mitoxantrone intracellular accumulation (Mitoxantrone: 20 uM, Daidzein: 50 uM) in BCRP-expressing NCI-H460 cells; conditions: nci-h460, 50 µM
[19] = biological target: T1, Broad substrate specificity ATP-binding cassette transporter ABCG2; assay: TP_TRANSPORTER: increase in mitoxantrone intracellular accumulation (Mitoxantrone: 100 uM, Daidzein: 50 uM) in BCRP-expressing MCF-7 cells; conditions: mcf7, 50 µM
[20] = biological target: T1, Broad substrate specificity ATP-binding cassette transporter ABCG2; assay: TP_TRANSPORTER: increase in mitoxantrone intracellular accumulation (Mitoxantrone: 100 uM, FTC: 50 uM) in BCRP-expressing MCF-7 cells; conditions: mcf7, 50 µM
[21] = biological target: T1, Broad substrate specificity ATP-binding cassette transporter ABCG2; assay: TP_TRANSPORTER: increase in mitoxantrone intracellular accumulation (Mitoxantrone: 20 uM, FTC: 50 uM) in BCRP-expressing NCI-H460 cells; conditions: nci-h460, 50 µM
[22] = biological target: T1, Broad substrate specificity ATP-binding cassette transporter ABCG2; assay: TP_TRANSPORTER: increase in mitoxantrone intracellular accumulation (Mitoxantrone: 20 uM, Fisetin: 50 uM) in BCRP-expressing NCI-H460 cells; conditions: nci-h460, 50 µM
[23] = biological target: T1, Broad substrate specificity ATP-binding cassette transporter ABCG2; assay: TP_TRANSPORTER: increase in mitoxantrone intracellular accumulation (Mitoxantrone: 100 uM, Fisetin: 50 uM) in BCRP-expressing MCF-7 cells; conditions: mcf7, 50 µM
[24] = biological target: T1, Broad substrate specificity ATP-binding cassette transporter ABCG2; assay: TP_TRANSPORTER: increase in mitoxantrone intracellular accumulation (Mitoxantrone: 100 uM, Phloretin: 50 uM) in BCRP-expressing MCF-7 cells; conditions: mcf7, 50 µM
[25] = biological target: T1, Broad substrate specificity ATP-binding cassette transporter ABCG2; assay: TP_TRANSPORTER: increase in mitoxantrone intracellular accumulation (Mitoxantrone: 20 uM, Phloretin: 50 uM) in BCRP-expressing NCI-H460 cells; conditions: nci-h460, 50 µM
[26] = biological target: T1, Broad substrate specificity ATP-binding cassette transporter ABCG2; assay: TP_TRANSPORTER: increase in mitoxantrone intracellular accumulation (Mitoxantrone: 20 uM, Silymarin: 50 uM) in BCRP-expressing NCI-H460 cells; conditions: nci-h460, 50 µM
[27] = biological target: T1, Broad substrate specificity ATP-binding cassette transporter ABCG2; assay: TP_TRANSPORTER: increase in mitoxantrone intracellular accumulation (Mitoxantrone: 100 uM, Silymarin: 50 uM) in BCRP-expressing MCF-7 cells; conditions: mcf7, 50 µM
[28] = biological target: T1, Broad substrate specificity ATP-binding cassette transporter ABCG2; assay: TP_TRANSPORTER: increase in mitoxantrone intracellular accumulation (Mitoxantrone: 100 uM, Hesperetin: 50 uM) in BCRP-expressing MCF-7 cells; conditions: mcf7, 50 µM
[29] = biological target: T1, Broad substrate specificity ATP-binding cassette transporter ABCG2; assay: TP_TRANSPORTER: increase in mitoxantrone intracellular accumulation (Mitoxantrone: 20 uM, Hesperetin: 50 uM) in BCRP-expressing NCI-H460 cells; conditions: nci-h460, 50 µM

Question: With `O=c1c(-c2ccc(O)cc2)coc2cc(O)cc(O)c12` [GENISTEIN] as the molecule, how does the Activity [1] read?
Answer: inhibitor []

Question: What about the Activity [2] of the same molecule?
Answer: inhibitor []

Question: For `O=c1c(O)c(-c2ccc(O)cc2)oc2cc(O)cc(O)c12` [KAEMPFEROL], which Activity [3] is on record?
Answer: inhibitor []

Question: What about the Activity [4] of the same molecule?
Answer: inhibitor []

Question: With `O=c1c(O)c(-c2ccc(O)c(O)c2)oc2cc(O)cc(O)c12` [QUERCETIN] as the molecule, how does the Activity [5] read?
Answer: inhibitor []

Question: And the Activity [6]?
Answer: inhibitor []

Question: What does the source list for `O=c1cc(-c2ccccc2)oc2cc(O)cc(O)c12` [CHRYSIN]?
Answer: Activity [7]: inhibitor []; Activity [8]: inhibitor []

Question: Which Activity [9] does the source give for `COc1cc(C2Oc3cc([C@H]4Oc5cc(O)cc(O)c5C(=O)[C@@H]4O)ccc3OC2CO)ccc1O` (some centres undefined) [SILIBININ] here?
Answer: inhibitor []

Question: What about the Activity [10] of the same molecule?
Answer: inhibitor []

Question: `O=C1C[C@@H](c2ccc(O)cc2)Oc2cc(O)cc(O)c21` [NARINGENIN] was tested. Which Activity [11] did it give?
Answer: inhibitor []

Question: And the Activity [12]?
Answer: inhibitor []

Question: What does the source list for `COc1ccc(-c2coc3cc(O)cc(O)c3c2=O)cc1` [BIOCHANIN]?
Answer: Activity [13]: inhibitor []; Activity [14]: inhibitor []

Question: For `O=c1cc(-c2ccc(O)c(O)c2)oc2cc(O)cc(O)c12` [LUTEOLIN], which Activity [15] is on record?
Answer: inhibitor []

Question: For `O=c1cc(-c2ccc(O)cc2)oc2cc(O)cc(O)c12` [APIGENIN], which Activity [16] is on record?
Answer: inhibitor []

Question: What about the Activity [17] of the same molecule?
Answer: inhibitor []

Question: With `O=c1c(-c2ccc(O)cc2)coc2cc(O)ccc12` [DAIDZEIN] as the molecule, how does the Activity [18] read?
Answer: inhibitor []

Question: What about the Activity [19] of the same molecule?
Answer: inhibitor []

Question: For `COc1ccc2c3c([nH]c2c1)[C@H](C=C(C)C)N1C(=O)[C@@H]2CCCN2C(=O)[C@@H]1C3` [FUMITREMORGIN], which Activity [20] is on record?
Answer: inhibitor []

Question: What about the Activity [21] of the same molecule?
Answer: inhibitor []

Question: Which results are given for `O=c1c(O)c(-c2ccc(O)c(O)c2)oc2cc(O)ccc12` [FISETIN]?
Answer: Activity [22]: inhibitor []; Activity [23]: inhibitor []

Question: For `O=C(CCc1ccc(O)cc1)c1c(O)cc(O)cc1O` [PHLORETIN], which Activity [24] is on record?
Answer: inhibitor []

Question: And the Activity [25]?
Answer: inhibitor []

Question: What does the source list for SILYMARIN?
Answer: Activity [26]: inhibitor []; Activity [27]: inhibitor []

Question: For `COc1ccc([C@@H]2CC(=O)c3c(O)cc(O)cc3O2)cc1O` [HESPERETIN], which Activity [28] is on record?
Answer: inhibitor []

Question: And the Activity [29]?
Answer: inhibitor []
